Measured values from article PMC5680089 (Science signaling, 2017).

Experiments:
S1P1-GFP (U2OS) = S1P1-GFP (U2OS) (Homo sapiens, UniProt P21453); assay: receptor internalization, imaging; assay type: cell-based; settings: agonist; […] min, […]°C
ApoM-Fc = ApoM-Fc (Homo sapiens, UniProt O95445); assay: intrinsic Trp fluorescence quenching; assay type: binding
Chain of ApoM-Fc (O95445 20-188 limits assumed): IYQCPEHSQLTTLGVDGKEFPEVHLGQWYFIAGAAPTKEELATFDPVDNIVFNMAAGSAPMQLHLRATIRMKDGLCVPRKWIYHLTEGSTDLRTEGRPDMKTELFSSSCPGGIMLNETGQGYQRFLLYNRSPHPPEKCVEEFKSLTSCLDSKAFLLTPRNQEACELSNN

Chain of S1P1-GFP (U2OS) (P21453 whole entry): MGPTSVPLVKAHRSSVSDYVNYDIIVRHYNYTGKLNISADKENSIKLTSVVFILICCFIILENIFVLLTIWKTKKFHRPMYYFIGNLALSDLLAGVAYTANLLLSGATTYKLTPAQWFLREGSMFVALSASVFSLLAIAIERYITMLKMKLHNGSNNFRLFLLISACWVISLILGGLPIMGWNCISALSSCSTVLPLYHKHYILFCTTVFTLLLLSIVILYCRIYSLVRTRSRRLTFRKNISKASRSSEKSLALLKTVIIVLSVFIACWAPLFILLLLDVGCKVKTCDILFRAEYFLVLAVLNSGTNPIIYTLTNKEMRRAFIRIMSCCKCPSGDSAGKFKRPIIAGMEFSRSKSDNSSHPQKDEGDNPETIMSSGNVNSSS

EC50 (ApoM-Fc)	SMILES	receptor internalization, imaging (S1P1-GFP (U2OS))
	CCCCCCCCc1ccc(CCC(N)(CO)COP(=O)(O)O)cc1 (centres unmarked) [FTY720-P]	lower than that induced by FTY720-P, a potent and irreversible inducer of S1P1 endocytosis
~0.22 µM	CCCCCCCCCCCCC/C=C/[C@@H](O)[C@@H](N)COP(=O)(O)O [S1P]	
